Experiments:
[1] = biological target: Cyclin-dependent kinase-like 1 (Homo sapiens) (UniProt Q00532); settings: Compound concentration 1000.0 nM
[2] = biological target: Angiotensin-converting enzyme 2 (Homo sapiens) (UniProt Q9BYF1); experiment: ACE-2(HU) Cerep selectivity data (BI); settings: Compound concentration 20.0 uM
[3] = biological target: B2 bradykinin receptor (Homo sapiens) (UniProt P30411); experiment: B2/HUM Cerep selectivity data (BI); settings: Compound concentration 20.0 uM
[4] = biological target: Beta-3 adrenergic receptor (Homo sapiens) (UniProt P13945); experiment: BETA3/HU Cerep selectivity data (BI); settings: filed as antagonist, Compound concentration 20.0 uM
[5] = biological target: T1, L-type Ca2+ channel (diltiazem site), Cav1.2 alpha-1C (Rattus norvegicus, UniProt P22002); experiment: CA+/DILSI/R Cerep selectivity data (BI); set-up: mode of action inhibitor; settings: rat brain, probe [3H]diltiazem, compound concentration 20 uM, read-out: % Ctrl
[6] = biological target: Voltage-dependent N-type calcium channel subunit alpha-1B (Rattus norvegicus) (UniProt Q02294); experiment: CA+/N/R Cerep selectivity data (BI); settings: Compound concentration 20.0 uM
[7] = biological target: Glucagon receptor (Homo sapiens) (UniProt P47871); experiment: GLUCAGONH_AGON Cerep selectivity data (BI); settings: filed as agonist, Compound concentration 20.0 uM
[8] = biological target: Histamine H2 receptor (Homo sapiens) (UniProt P25021); experiment: H2/APT/HS Cerep selectivity data (BI); settings: filed as antagonist, Compound concentration 20.0 uM
[9] = biological target: Muscarinic acetylcholine receptor M3 (Homo sapiens) (UniProt P20309); experiment: M3/H Cerep selectivity data (BI); settings: Compound concentration 20.0 uM
[10] = biological target: Mitogen-activated protein kinase 14 (Homo sapiens) (UniProt Q16539); experiment: P38ALPHA_CE Cerep selectivity data (BI); settings: Compound concentration 20.0 uM
[11] = biological target: xanthine dehydrogenase/oxidase (Bos taurus, UniProt P80457); experiment: SUPOXXANOXID Cerep selectivity data (BI); set-up: mode of action inhibitor; settings: cattle, xanthine oxidase enzyme assay; compound concentration 20 uM; read-out: % Ctrl
[12] = biological target: Beta-2 adrenergic receptor (Homo sapiens) (UniProt P07550); experiment: BETA2/HU Eurofins-Panlabs selectivity data (BI); settings: Compound concentration 10.0 uM
[13] = biological target: T1, L-type Ca2+ channel (diltiazem site), Cav1.2 alpha-1C; experiment: CA+/DILSI/RA Eurofins-Panlabs selectivity data (BI); settings: compound concentration 10 uM, read-out: % Ctrl
[14] = biological target: Histamine H3 receptor (Homo sapiens) (UniProt Q9Y5N1); experiment: H3/H Eurofins-Panlabs selectivity data (BI); settings: Compound concentration 10.0 uM
hERG (KCNH2) = hERG (KCNH2) (Homo sapiens, UniProt Q12809); experiment: K+/HERG Eurofins-Panlabs selectivity data (BI); settings: compound concentration 10 uM, read-out: % Ctrl
[15] = biological target: Acetylcholine receptor subunit alpha (Homo sapiens) (UniProt P02708); experiment: NACH/H Eurofins-Panlabs selectivity data (BI); settings: Compound concentration 10.0 uM
[16] = biological target: Activin receptor type-2B (Homo sapiens) (UniProt Q13705); experiment: ACVR2B Invitrogen selectivity data (BI); settings: Compound concentration 3.0 uM
[17] = biological target: Tyrosine-protein kinase Fer (Homo sapiens) (UniProt P16591); experiment: FER Invitrogen selectivity data (BI); settings: Compound concentration 3.0 uM
[18] = biological target: Fibroblast growth factor receptor 3 (Homo sapiens) (UniProt P22607); experiment: FGFR3 Invitrogen selectivity data (BI); settings: Compound concentration 3.0 uM
[19] = system: Mast/stem cell growth factor receptor Kit (Homo sapiens), P10721 [T670I]; experiment: KIT T670I Invitrogen selectivity data (BI); settings: Compound concentration 3.0 uM
[20] = biological target: Serine/threonine-protein kinase Nek7 (Homo sapiens) (UniProt Q8TDX7); experiment: NEK7 Invitrogen selectivity data (BI); settings: Compound concentration 3.0 uM
[21] = biological target: T2, Serine/threonine-protein kinase 3 (Homo sapiens) (UniProt Q13188); experiment: STK3 Invitrogen selectivity data (BI); settings: Compound concentration 3.0 uM
T2 sequence (whole entry): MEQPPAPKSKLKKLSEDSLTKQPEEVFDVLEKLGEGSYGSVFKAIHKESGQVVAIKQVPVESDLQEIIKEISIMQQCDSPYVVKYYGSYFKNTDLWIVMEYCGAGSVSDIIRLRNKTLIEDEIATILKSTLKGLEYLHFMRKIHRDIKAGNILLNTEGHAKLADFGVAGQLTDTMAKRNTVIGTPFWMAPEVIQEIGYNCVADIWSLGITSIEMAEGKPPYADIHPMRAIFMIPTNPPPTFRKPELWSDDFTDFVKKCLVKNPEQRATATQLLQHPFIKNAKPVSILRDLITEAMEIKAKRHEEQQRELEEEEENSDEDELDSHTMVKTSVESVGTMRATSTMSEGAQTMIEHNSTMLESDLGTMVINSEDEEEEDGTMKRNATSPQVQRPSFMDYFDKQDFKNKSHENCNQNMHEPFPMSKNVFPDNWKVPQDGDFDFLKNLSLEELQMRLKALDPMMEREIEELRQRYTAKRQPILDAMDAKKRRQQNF

[22] = biological target: Serine/threonine-protein kinase 33 (Homo sapiens) (UniProt Q9BYT3); experiment: STK33 Invitrogen selectivity data (BI); settings: Compound concentration 3.0 uM
[23] = biological target: T3, Tyrosine-protein kinase Tec (Homo sapiens) (UniProt P42680); experiment: TEC Invitrogen selectivity data (BI); settings: Compound concentration 3.0 uM
T3 sequence (whole entry): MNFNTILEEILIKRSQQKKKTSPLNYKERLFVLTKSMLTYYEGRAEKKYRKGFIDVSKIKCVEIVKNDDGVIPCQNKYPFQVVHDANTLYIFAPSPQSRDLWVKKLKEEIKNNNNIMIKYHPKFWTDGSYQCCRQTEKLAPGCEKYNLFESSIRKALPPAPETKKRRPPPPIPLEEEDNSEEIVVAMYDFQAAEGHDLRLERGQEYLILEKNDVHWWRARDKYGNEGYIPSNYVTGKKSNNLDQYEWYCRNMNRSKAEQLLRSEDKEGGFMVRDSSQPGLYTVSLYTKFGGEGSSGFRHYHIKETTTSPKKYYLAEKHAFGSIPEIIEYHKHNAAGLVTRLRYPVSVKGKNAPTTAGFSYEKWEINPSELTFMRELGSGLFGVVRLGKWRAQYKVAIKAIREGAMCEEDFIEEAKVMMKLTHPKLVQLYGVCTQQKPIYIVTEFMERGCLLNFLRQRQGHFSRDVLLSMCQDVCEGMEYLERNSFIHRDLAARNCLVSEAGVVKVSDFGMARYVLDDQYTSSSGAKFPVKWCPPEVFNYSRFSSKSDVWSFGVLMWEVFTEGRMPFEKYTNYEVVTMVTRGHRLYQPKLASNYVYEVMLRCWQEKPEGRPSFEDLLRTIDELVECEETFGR

T1 sequence (P22002 whole entry): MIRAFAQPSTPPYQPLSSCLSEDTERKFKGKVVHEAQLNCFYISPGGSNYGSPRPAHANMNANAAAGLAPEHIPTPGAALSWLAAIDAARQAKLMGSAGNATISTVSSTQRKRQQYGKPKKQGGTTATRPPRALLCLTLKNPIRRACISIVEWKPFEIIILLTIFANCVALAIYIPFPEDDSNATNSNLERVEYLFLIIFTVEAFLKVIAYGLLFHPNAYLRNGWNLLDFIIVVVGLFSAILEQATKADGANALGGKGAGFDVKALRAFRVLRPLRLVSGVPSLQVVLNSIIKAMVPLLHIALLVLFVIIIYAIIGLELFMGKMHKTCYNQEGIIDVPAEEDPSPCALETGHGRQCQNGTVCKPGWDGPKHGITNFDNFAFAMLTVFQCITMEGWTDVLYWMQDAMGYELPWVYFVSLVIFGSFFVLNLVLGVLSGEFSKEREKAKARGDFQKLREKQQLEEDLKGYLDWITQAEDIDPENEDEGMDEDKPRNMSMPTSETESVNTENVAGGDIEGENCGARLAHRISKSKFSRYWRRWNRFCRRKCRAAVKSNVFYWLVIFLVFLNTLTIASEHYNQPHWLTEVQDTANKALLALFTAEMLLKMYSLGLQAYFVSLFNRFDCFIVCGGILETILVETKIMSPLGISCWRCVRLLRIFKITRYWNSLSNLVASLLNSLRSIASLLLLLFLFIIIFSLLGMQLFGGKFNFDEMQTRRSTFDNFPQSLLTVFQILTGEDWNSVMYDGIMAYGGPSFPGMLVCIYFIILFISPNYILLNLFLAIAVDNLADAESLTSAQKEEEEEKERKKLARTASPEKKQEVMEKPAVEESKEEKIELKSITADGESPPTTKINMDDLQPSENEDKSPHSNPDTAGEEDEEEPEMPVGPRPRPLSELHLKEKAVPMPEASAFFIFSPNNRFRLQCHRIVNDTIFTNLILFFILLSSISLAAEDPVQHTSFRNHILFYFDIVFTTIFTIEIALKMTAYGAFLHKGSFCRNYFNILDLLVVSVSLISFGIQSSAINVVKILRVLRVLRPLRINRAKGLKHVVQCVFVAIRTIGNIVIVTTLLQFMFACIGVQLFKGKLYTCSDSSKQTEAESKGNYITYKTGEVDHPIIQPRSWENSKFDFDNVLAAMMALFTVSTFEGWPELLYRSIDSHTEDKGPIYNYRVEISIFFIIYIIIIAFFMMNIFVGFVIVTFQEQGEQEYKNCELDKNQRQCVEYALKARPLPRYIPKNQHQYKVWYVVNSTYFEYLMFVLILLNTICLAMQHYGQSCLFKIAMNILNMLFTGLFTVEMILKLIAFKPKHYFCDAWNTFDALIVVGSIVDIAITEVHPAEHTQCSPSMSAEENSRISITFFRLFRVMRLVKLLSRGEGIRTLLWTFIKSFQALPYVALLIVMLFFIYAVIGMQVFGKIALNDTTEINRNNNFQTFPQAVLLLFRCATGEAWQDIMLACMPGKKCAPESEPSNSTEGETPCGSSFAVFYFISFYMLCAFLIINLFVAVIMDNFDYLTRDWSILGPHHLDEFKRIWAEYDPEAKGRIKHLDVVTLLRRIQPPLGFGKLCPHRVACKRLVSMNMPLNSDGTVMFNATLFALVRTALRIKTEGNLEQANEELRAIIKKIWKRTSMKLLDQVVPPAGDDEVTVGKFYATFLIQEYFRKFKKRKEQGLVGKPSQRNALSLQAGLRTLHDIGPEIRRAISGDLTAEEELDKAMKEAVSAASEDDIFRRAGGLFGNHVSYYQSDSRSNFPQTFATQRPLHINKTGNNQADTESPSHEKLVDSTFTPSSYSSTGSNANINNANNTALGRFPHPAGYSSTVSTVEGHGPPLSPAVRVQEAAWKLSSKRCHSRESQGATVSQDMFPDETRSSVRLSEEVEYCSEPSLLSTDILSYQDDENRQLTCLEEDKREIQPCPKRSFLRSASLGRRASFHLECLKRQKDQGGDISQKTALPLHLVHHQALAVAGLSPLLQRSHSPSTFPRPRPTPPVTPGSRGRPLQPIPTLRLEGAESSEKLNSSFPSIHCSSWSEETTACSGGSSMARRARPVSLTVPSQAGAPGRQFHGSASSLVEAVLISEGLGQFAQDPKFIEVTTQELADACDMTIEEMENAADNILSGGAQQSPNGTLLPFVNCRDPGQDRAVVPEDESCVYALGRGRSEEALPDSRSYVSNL
Chain of xanthine dehydrogenase/oxidase (P80457 whole entry): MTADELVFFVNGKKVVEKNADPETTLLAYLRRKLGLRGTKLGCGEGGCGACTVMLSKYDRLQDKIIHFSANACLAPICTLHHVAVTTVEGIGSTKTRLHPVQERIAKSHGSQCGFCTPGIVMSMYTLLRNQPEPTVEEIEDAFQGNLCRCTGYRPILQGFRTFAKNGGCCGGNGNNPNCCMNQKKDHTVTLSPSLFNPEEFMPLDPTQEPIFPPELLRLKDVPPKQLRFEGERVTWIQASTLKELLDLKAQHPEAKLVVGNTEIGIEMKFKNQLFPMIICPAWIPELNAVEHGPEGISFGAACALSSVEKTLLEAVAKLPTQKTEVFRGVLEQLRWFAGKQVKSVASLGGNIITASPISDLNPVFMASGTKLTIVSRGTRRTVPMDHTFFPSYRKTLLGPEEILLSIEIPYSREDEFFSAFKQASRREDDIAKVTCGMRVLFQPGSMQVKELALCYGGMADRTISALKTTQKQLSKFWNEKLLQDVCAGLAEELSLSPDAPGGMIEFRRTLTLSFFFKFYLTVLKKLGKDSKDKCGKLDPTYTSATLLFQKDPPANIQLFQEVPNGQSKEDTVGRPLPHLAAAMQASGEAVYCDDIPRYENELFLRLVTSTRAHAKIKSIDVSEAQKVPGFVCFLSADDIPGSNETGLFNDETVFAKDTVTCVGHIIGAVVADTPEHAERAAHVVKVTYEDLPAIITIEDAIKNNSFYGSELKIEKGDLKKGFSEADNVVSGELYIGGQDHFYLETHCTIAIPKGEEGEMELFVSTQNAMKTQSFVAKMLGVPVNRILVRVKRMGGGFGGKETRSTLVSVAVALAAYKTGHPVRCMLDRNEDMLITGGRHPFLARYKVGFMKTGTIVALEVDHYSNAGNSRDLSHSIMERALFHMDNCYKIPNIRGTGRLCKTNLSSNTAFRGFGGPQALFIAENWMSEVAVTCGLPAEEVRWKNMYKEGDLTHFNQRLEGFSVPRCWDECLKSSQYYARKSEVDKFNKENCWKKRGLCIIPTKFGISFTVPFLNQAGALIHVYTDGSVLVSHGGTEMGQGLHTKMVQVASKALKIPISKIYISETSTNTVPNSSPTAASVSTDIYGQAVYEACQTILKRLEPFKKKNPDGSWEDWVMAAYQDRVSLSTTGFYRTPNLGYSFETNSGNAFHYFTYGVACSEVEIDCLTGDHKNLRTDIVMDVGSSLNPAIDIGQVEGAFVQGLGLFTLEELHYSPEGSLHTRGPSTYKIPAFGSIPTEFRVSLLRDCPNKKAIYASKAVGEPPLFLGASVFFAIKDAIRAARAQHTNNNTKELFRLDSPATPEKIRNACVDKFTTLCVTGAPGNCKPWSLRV
Chain of Angiotensin-converting enzyme 2 (Homo sapiens) (Q9BYF1 18-805 limits assumed): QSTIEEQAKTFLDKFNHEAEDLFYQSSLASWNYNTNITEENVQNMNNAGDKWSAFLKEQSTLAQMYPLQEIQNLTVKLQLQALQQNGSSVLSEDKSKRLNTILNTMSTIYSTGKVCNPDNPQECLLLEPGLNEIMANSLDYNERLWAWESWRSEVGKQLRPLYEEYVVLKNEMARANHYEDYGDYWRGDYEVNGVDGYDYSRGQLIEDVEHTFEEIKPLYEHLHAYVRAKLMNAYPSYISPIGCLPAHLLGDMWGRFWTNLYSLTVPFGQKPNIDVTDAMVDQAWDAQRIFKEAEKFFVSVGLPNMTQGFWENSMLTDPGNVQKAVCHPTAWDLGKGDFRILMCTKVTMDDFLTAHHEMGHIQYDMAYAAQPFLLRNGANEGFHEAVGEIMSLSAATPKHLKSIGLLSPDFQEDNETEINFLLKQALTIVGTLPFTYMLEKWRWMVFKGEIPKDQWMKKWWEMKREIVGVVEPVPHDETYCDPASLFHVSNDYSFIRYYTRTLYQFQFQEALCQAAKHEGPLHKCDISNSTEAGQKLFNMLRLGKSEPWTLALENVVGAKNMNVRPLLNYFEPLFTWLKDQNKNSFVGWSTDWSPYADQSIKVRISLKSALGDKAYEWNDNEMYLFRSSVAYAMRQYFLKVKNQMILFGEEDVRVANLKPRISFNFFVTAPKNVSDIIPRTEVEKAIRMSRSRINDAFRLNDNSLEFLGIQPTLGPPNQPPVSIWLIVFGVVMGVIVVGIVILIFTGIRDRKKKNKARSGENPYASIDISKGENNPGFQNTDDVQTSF
Chain of Muscarinic acetylcholine receptor M3 (Homo sapiens) (P20309 whole entry, looked up): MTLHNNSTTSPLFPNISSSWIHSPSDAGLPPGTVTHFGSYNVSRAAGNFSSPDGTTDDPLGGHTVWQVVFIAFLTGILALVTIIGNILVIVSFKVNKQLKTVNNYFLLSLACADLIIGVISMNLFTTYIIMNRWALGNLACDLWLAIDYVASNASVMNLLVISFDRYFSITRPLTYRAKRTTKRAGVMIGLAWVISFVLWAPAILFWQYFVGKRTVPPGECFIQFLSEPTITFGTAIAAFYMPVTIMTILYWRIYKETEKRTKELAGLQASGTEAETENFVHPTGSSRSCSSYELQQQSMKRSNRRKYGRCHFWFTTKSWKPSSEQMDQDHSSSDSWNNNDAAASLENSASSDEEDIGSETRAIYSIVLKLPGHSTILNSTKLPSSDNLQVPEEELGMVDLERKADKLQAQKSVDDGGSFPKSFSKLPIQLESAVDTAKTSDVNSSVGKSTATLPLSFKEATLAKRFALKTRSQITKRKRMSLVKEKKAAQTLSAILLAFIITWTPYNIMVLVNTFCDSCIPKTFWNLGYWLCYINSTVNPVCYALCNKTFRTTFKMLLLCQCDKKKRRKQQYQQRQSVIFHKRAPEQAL

CN(C)C(=O)Cn1cc(-c2nc(C3(c4ccc(-c5cnc(N)nc5)cc4)CC3)no2)cn1 [BI 0153]
residual activity [1]: 100%

CN(C)C(=O)Cn1cc(-c2nc([C@@](C)(c3ccc(-c4cnc(N)nc4)cc3)C3CC3)no2)cn1 [BI 665915]
residual activity [2]: 132%
residual activity [3]: 102%
residual activity [4]: 86%
activity at 20 µM [5]: 119% (not active)
residual activity [6]: 96%
residual activity [7]: 107%
residual activity [8]: 96%
residual activity [9]: 83%
residual activity [10]: 113%
activity at 20 µM [11]: 85% (not active)
residual activity [12]: 101%
activity at 10 µM [13]: 73% (not active)
residual activity [14]: 123%
activity at 10 µM (hERG (KCNH2)): 90% (not active)
residual activity [15]: 97%
residual activity [16]: 97%
residual activity [17]: 98.5%
residual activity [18]: 95.5%
residual activity [19]: 93%
residual activity [20]: 99%
residual activity [21]: 104%
residual activity [22]: 101%
residual activity [23]: 103%

Reference: ChEMBL document CHEMBL4507276 (2021)
